Experimental data from patent EP4640052A1 (BASF SE, priority 2024, dated 2025).
Several values for one entry are separate records, joined by “and”; a condition that tells them apart may be missing. Identical values can stand only once.

Legend:
[1] = test system: Puccinia triticina (syn. P. recondita); test: Green house use example 9: curative control of brown rust on wheat (PUCCRT K4); format: in vivo
[2] = test system: Pyricularia oryzae (PYRIOR); test: microbe, parasite or virus in culture; format: cell-based; conditions: for Observed efficacy: single active; for inhibition of growth at 0.016 ppm / inhibition of growth at 0.063 ppm / inhibition of growth at 1 ppm / inhibition of growth at 0.004 ppm / inhibition of growth at 0.25 ppm: Pyricularia oryzae, 168 h, read-out: Observed efficacy
[3] = test system: Pyrenophora teres (PYRNTE), Qol resistant (F129L); test: microbe, parasite or virus in culture; format: cell-based; conditions: for inhibition of growth at 0.016 ppm / inhibition of growth at 0.063 ppm / inhibition of growth at 0.25 ppm / inhibition of growth at 1 ppm: Pyrenophora teres, 168 h, read-out: Observed efficacy
[4] = test system: Alternaria solani (ALTESO); test: microbe, parasite or virus in culture; format: cell-based
[5] = test system: Sclerotinia sclerotiorum (SCLESC); test: microbe, parasite or virus in culture; format: cell-based; conditions: for inhibition of growth at 0.063 ppm / inhibition of growth at 1 ppm / inhibition of growth at 0.016 ppm / inhibition of growth at 0.25 ppm: Sclerotinia sclerotiorum, 168 h, read-out: Observed efficacy
[6] = test system: Monilinia sp. (MONISP); test: microbe, parasite or virus in culture; format: cell-based
[7] = test system: Septoria tritici (SEPTTR); test: microbe, parasite or virus in culture; format: cell-based
[8] = test system: Puccinia triticina (syn. P. recondita); test: Green house use example 10: preventative control of brown rust on wheat (PUCCRT P10); format: in vivo
[9] = test system: Phakopsora pachyrhizi; test: Green house use example 13: curative control of soybean rust on soybeans (PHAKPA F129L K4); format: in vivo
[10] = test system: Blumeria graminis f. sp. tritici; test: Green house use example 11: control of powdery mildew on wheat, sprayed 2 days after inoculation (ERYSGT K2); format: in vivo; conditions: G143A strain, single active
[11] = test system: Phakopsora pachyrhizi; test: Green house use example 14: protective control of soybean rust on soybeans (PHAKPA F129L P2); format: in vivo; conditions: single compound
[12] = Alternaria solani, 168 h, read-out: Observed efficacy
[13] = Monilinia, 168 h, read-out: Observed efficacy
[14] = Zymoseptoria tritici, 168 h, read-out: Observed efficacy
[15] = Trial 2, single compound, 1 ppm
[16] = Trial 1, single compound, 2 ppm
[17] = Trial 1, single compound, 1 ppm
[18] = Trial 1, single compound, 4 ppm
[19] = Trial 2, single compound, 4 ppm
[20] = Trial 3, single compound, 4 ppm
[21] = Trial 2, single compound, 2 ppm

## CC(O)(Cn1cncn1)c1ccc(Oc2ccc(Cl)cc2)cc1C(F)(F)F (racemic) [mefentrifluconazole, reference compound]
[1]; 1 ppm
  Observed efficacy: 39
[1]; 4 ppm
  Observed efficacy: 54
[2]; 0.063 ppm
  Observed efficacy: 0%
[2]; 1 ppm
  Observed efficacy: 53%
[3]
  Observed efficacy: 40 and 22
[4]
  Observed efficacy: 27

## CO/C=C(/C(=O)OC)c1cccc(Br)c1CO/N=C(\COC)c1ccccc1 [I.2, Methyl (E)-2-[3-bromo-2-[[(Z)-(2-methoxy-1-phenyl-ethylidene)amino]oxymethyl]-phenyl]-3-methoxy-prop-2-enoate]
[2]
  inhibition of growth at 0.016 ppm: 0%
  inhibition of growth at 0.063 ppm: 0%
  inhibition of growth at 1 ppm: 31%
[3]
  inhibition of growth at 0.016 ppm: 7%
  inhibition of growth at 0.063 ppm: 34%
  inhibition of growth at 0.25 ppm: 44%
  inhibition of growth at 1 ppm: 60%
[5]
  inhibition of growth at 0.063 ppm: 7%
  inhibition of growth at 1 ppm: 41%
[4]; [12]
  inhibition of growth at 0.063 ppm: 36%
[6]; [13]
  inhibition of growth at 0.001 ppm: 0%
  inhibition of growth at 0.016 ppm: 0%
  inhibition of growth at 0.063 ppm: 18%

## CO/C=C(/C(=O)OC)c1cccc(C)c1CO/N=C(\COC)c1ccccc1 [I.3, Methyl (E)-3-methoxy-2-[2-[[(Z)-(2-methoxy-1-phenyl-ethylidene)amino]oxymethyl]-3-methyl-phenyl]prop-2-enoate]
[2]
  inhibition of growth at 0.016 ppm: 33%
[3]
  inhibition of growth at 0.016 ppm: 26%
  inhibition of growth at 0.063 ppm: 43%
  inhibition of growth at 0.25 ppm: 51%
  inhibition of growth at 1 ppm: 62%
[5]
  inhibition of growth at 0.016 ppm: 0%
  inhibition of growth at 0.063 ppm: 3%
  inhibition of growth at 0.25 ppm: 2%
[4]; [12]
  inhibition of growth at 0.004 ppm: 11%
  inhibition of growth at 0.016 ppm: 32%
  inhibition of growth at 0.063 ppm: 59%
[6]; [13]
  inhibition of growth at 0.063 ppm: 51%
[7]; [14]
  inhibition of growth at 0.016 ppm: 0%
  inhibition of growth at 0.063 ppm: 21%
  inhibition of growth at 0.25 ppm: 49%

## CO/C=C(/C(=O)OC)c1cccc(C)c1CO/N=C(\COC)c1ccc(F)cc1 [I.4, Methyl (E)-2-[2-[[(Z)-[1-(4-fluorophenyl)-2-methoxy-ethylidene]amino]oxymethyl]-3-methyl-phenyl]-3-methoxy-prop-2-enoate]
[1]; [15]
  Observed efficacy: 49
[8]; wheat, sprayed 10 days before inoculation, single active, 2 ppm
  Observed efficacy: 12
[2]
  inhibition of growth at 0.016 ppm: 28%
[3]
  inhibition of growth at 0.063 ppm: 39%
  inhibition of growth at 1 ppm: 64%
[5]
  inhibition of growth at 0.016 ppm: 0%
  inhibition of growth at 0.063 ppm: 0%
  inhibition of growth at 1 ppm: 41%
[9]; [16]
  Observed efficacy: 36
[4]; [12]
  inhibition of growth at 0.063 ppm: 50%
[7]; [14]
  inhibition of growth at 0.063 ppm: 16%
  inhibition of growth at 0.25 ppm: 43%

## CO/C=C(/C(=O)OC)c1cccc(Cl)c1CO/N=C(\COC)c1ccc(F)cc1 [I.5, Methyl-(E)-2-[3-chloro-2-[[(Z)-[1-(4-fluorophenyl)-2-methoxy-ethylidene]amino]-oxy¬imethyl]phenyl]-3-methoxy-prop-2-enoate]
[2]; 0.063 ppm
  Observed efficacy: 28%
[5]
  Observed efficacy: 0
[6]
  Observed efficacy: 56

## CO/C=C(/C(=O)OC)c1cccc(Cl)c1CO/N=C(\COC)c1ccc(F)cc1F [I.6, Methyl (E)-2-[3-chloro-2-[[(Z)-[1-(2,4-difluorophenyl)-2-methoxy-ethylidene]amino]-oxymethyl]phenyl]-3-methoxy-prop-2-enoate]
[2]
  inhibition of growth at 0.004 ppm: 0%
  inhibition of growth at 0.016 ppm: 0%
  inhibition of growth at 0.063 ppm: 0%
  inhibition of growth at 1 ppm: 24%
[3]
  inhibition of growth at 0.016 ppm: 2%
  inhibition of growth at 0.063 ppm: 27%
  inhibition of growth at 0.25 ppm: 42%
  inhibition of growth at 1 ppm: 54%
[5]
  inhibition of growth at 0.016 ppm: 4%
  inhibition of growth at 0.063 ppm: 5%
  inhibition of growth at 1 ppm: 47%
[4]; [12]
  inhibition of growth at 0.016 ppm: 10%
  inhibition of growth at 0.063 ppm: 18%
  inhibition of growth at 0.25 ppm: 34%
[6]; [13]
  inhibition of growth at 0.016 ppm: 10%
  inhibition of growth at 0.063 ppm: 7%

## CO/C=C(/C(=O)OC)c1cccc(F)c1CO/N=C(\COC)c1c(F)cc(F)cc1F [I.8, Methyl (E)-2-[3-fluoro-2-[[(Z)-[2-methoxy-1-(2,4,6-trifluorophenyl)ethylidene]amino]-oxymethyl]phenyl]-3-methoxy-prop-2-enoate]
[2]
  inhibition of growth at 0.016 ppm: 0%
  inhibition of growth at 0.063 ppm: 0%
  inhibition of growth at 0.25 ppm: 2%
  inhibition of growth at 1 ppm: 18%
[3]
  inhibition of growth at 0.016 ppm: 1%
  inhibition of growth at 0.063 ppm: 14%
  inhibition of growth at 0.25 ppm: 20%
  inhibition of growth at 1 ppm: 44%
[5]
  inhibition of growth at 0.063 ppm: 0%
[4]; [12]
  inhibition of growth at 0.016 ppm: 2%
  inhibition of growth at 0.063 ppm: 0%
  inhibition of growth at 0.25 ppm: 4%
  inhibition of growth at 1 ppm: 59%
[6]; [13]
  inhibition of growth at 0.25 ppm: 42%

## CO/C=C(/C(=O)OC)c1cccc(C)c1CO/N=C(\COC)c1c(F)cc(F)cc1F [I.10, Methyl (E)-3-methoxy-2-[2-[[(Z)-[2-methoxy-1-(2,4,6-trifluorophenyl)ethylidene]-amino]oxymethyl]-3-methyl-phenyl]prop-2-enoate]
[1]; [17]
  Observed efficacy: 3
[1]; [18]
  Observed efficacy: 14
[10]; 16 ppm
  Observed efficacy: 7
[2]
  inhibition of growth at 0.063 ppm: 43%
[3]
  inhibition of growth at 0.016 ppm: 15%
  inhibition of growth at 0.063 ppm: 40%
  inhibition of growth at 1 ppm: 65%
[5]
  inhibition of growth at 0.016 ppm: 0%
  inhibition of growth at 0.063 ppm: 3%
  inhibition of growth at 0.25 ppm: 13%
[9]; [15]
  Observed efficacy: 13
[9]; [19]
  Observed efficacy: 22
[9]; [20]
  Observed efficacy: 32
[4]; [12]
  inhibition of growth at 0.016 ppm: 0%
  inhibition of growth at 0.063 ppm: 0%
  inhibition of growth at 0.25 ppm: 0%
[7]; [14]
  inhibition of growth at 0.063 ppm: 0%
  inhibition of growth at 0.25 ppm: 26%
  inhibition of growth at 1 ppm: 55%

## CO/C=C(/C(=O)OC)c1cccc(Br)c1CO/N=C(\COC)c1c(F)cc(F)cc1F [I.11, Methyl (E)-2-[3-bromo-2-[[(Z)-[2-methoxy-1-(2,4,6-trifluorophenyl)ethylidene]-amino]oxymethyl]phenyl]-3-methoxy-prop-2-enoate]
[1]; [17]
  Observed efficacy: 1
[1]; [18]
  Observed efficacy: 14
[1]; [15]
  Observed efficacy: 0
[1]; [21]
  Observed efficacy: 0
[10]; 63 ppm
  Observed efficacy: 14
[2]
  inhibition of growth at 0.063 ppm: 34%
[3]
  inhibition of growth at 0.016 ppm: 6%
  inhibition of growth at 0.063 ppm: 44%
  inhibition of growth at 0.25 ppm: 71%
[5]
  inhibition of growth at 0.063 ppm: 2%
[9]; [18]
  Observed efficacy: 12
[9]; [20]
  Observed efficacy: 12
[4]; [12]
  inhibition of growth at 0.063 ppm: 0%
  inhibition of growth at 0.25 ppm: 0%
[6]; [13]
  inhibition of growth at 0.001 ppm: 0%
  inhibition of growth at 0.004 ppm: 17%
[11]; 0.5 ppm
  Observed efficacy: 59
[7]; [14]
  inhibition of growth at 0.063 ppm: 0%
  inhibition of growth at 0.25 ppm: 14%
  inhibition of growth at 1 ppm: 70%

## N#Cc1c[nH]cc1-c1cccc2c1OC(F)(F)O2 [fludioxonil, reference compound]
[2]
  inhibition of growth at 0.004 ppm: 8%
  inhibition of growth at 0.016 ppm: 35%
  inhibition of growth at 0.063 ppm: 59%
  inhibition of growth at 0.25 ppm: 59%
[3]
  inhibition of growth at 0.063 ppm: 51%
[5]
  inhibition of growth at 0.063 ppm: 67%
[4]; [12]
  inhibition of growth at 0.016 ppm: 5%
  inhibition of growth at 0.063 ppm: 29%
[6]; [13]
  inhibition of growth at 0.004 ppm: 8%
[7]; [14]
  inhibition of growth at 0.063 ppm: 5%
  inhibition of growth at 0.25 ppm: 5%
  inhibition of growth at 1 ppm: 0%

## O=C(Nc1ccccc1F)c1ccc(-c2noc(C(F)(F)F)n2)cc1 [flufenoxadiazam, reference compound]
[2]; 0.004 ppm
  Observed efficacy: 2%
[3]
  Observed efficacy: 5
[9]; [16]
  Observed efficacy: 15
[9]; [18]
  Observed efficacy: 31
[9]; [21]
  Observed efficacy: 17
[9]; [19]
  Observed efficacy: 34
[11]; 0.5 ppm
  Observed efficacy: 0
[11]; 2 ppm
  Observed efficacy: 63
[7]
  Observed efficacy: 2 and 3

## Cn1cc(C(=O)Nc2ccccc2-c2cc(F)c(F)c(F)c2)c(C(F)F)n1 [fluxapyroxad, reference compound]
[1]; 1 ppm
  Observed efficacy: 20
[1]; 2 ppm
  Observed efficacy: 67
[8]; 1 ppm
  Observed efficacy: 42
[2]; 1 ppm
  Observed efficacy: 19%

## Cc1cccc(-n2nnn(C)c2=O)c1COc1ccn(-c2ccc(Cl)cc2)n1 [metyltetraprole, reference compound]
[2]; 0.016 ppm
  Observed efficacy: 30%
[2]; 0.063 ppm
  Observed efficacy: 70%
[4]
  Observed efficacy: 22
[6]
  Observed efficacy: 17

## OC(Cc1ccccc1Cl)(Cn1nc[nH]c1=S)C1(Cl)CC1 (stereo not drawn) [prothioconazole, reference compound]
[2]
  inhibition of growth at 0.25 ppm: 1%
  inhibition of growth at 1 ppm: 12%
[4]; [12]
  inhibition of growth at 0.25 ppm: 10%
  inhibition of growth at 1 ppm: 14%
[6]; [13]
  inhibition of growth at 0.004 ppm: 19%
[7]; [14]
  inhibition of growth at 0.063 ppm: 5%
  inhibition of growth at 0.25 ppm: 67%

## mancozeb [reference compound]
[2]; 0.004 ppm
  Observed efficacy: 11%
[2]; 0.016 ppm
  Observed efficacy: 34%
[2]; 0.063 ppm
  Observed efficacy: 54%
[3]
  Observed efficacy: 59
[5]
  Observed efficacy: 59
[7]
  Observed efficacy: 18 and 19 and 13

## metarylpicoxamid
[9]; Trial 3, single compound, 1 ppm
  Observed efficacy: 20
[9]; Trial 3, single compound, 2 ppm
  Observed efficacy: 66
